Laboratory results taken from patent US20090018134A1, “Compounds - 945” (AstraZeneca AB, priority 2007, published 2009).

These molecules were tested against T1, mTOR (Homo sapiens, UniProt P42345) (assay: In Vitro mTOR Kinase Assay (Echo), Test (a)(ii)). Conditions: read-out: mTOR Kinase Assay (Echo).
T1 construct: FLAG; made in house
Format: biochemical
Procedure, shortened: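 Compounds were acoustically dispensed, then incubated with FLAG-tagged mTOR (1362-2549) for 2 hours at room temperature. Reactions were quenched with EDTA plus detection antibody and AlphaScreen beads and left overnight in the dark before reading. Loss of phospho-T389 signal gave IC50 values.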

T1 sequence (P42345 1362-2549): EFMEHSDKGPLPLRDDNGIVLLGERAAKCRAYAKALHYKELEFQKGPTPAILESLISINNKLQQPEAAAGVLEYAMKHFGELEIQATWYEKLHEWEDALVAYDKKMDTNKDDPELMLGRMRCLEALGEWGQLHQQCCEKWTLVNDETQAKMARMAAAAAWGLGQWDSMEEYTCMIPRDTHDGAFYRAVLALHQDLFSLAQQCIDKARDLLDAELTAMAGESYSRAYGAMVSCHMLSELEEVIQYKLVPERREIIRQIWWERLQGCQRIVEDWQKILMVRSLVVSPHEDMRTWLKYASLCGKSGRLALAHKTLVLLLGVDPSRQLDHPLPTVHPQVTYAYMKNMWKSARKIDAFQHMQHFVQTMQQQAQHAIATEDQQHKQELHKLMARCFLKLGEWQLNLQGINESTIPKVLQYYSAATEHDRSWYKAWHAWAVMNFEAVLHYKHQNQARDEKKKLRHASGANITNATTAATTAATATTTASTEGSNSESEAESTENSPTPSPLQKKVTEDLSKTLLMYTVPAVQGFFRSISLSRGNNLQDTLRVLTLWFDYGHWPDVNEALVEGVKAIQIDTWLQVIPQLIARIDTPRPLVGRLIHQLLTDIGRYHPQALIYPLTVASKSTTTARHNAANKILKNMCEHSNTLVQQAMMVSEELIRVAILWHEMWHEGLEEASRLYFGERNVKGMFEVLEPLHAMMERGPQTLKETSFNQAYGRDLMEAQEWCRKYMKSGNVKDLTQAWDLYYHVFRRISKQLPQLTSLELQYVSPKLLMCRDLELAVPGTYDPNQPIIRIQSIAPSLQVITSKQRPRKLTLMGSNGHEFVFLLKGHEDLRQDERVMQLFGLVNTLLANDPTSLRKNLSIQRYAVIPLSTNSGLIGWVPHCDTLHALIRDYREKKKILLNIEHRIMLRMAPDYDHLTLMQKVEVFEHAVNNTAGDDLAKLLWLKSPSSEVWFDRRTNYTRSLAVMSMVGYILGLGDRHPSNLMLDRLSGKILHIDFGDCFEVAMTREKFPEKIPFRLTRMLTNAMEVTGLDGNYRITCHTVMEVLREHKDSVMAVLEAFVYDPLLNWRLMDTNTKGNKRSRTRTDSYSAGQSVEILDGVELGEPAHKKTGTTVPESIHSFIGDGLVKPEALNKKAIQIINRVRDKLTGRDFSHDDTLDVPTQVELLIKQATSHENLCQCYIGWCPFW

| IC50 [nM] | SMILES |
| --- | --- |
| 1.64 | C[C@H]1COCCN1c1cc(C2(S(C)(=O)=O)CC2)nc(-c2ccc(NC(=O)NCCC#N)cc2)n1 [Example 2x, 3-(2-cyanoethyl)-1-[4-[4-[(3S)-3-methylmorpholin-4-yl]-6-(1-methylsulfonylcyclopropyl)pyrimidin-2-yl]phenyl]urea] |
| 48.8 | C[C@H]1COCCN1c1cc(C2(S(=O)(=O)C3CC3)CC2)nc(-c2ccc(NC(=O)NCC(C)(C)O)cc2)n1 [Example 3r, 1-[4-[4-(1-cyclopropylsulfonylcyclopropyl)-6-[(3S)-3-methylmorpholin-4-yl]pyrimidin-2-yl]phenyl]-3-(2-hydroxy-2-methylpropyl)urea] |

Same assay, conditions: table of enzyme assay Test (a)(ii); read-out: Test (a)(ii) IC50

| SMILES | IC50 [nM] |
| --- | --- |
| CC(=O)NCCS(=O)(=O)C1(c2cc(N3CCOC[C@@H]3C)nc(-c3ccc(NC(=O)NC4CC4)cc3)n2)CC1 [Example 44, N-[2-[1-[2-[4-(Cyclopropylcarbamoylamino)phenyl]-6-[(3S)-3-methylmorpholin-4-yl]pyrimidin-4-yl]cyclopropyl]sulfonylethyl]acetamide] | 23.4 |
| C[C@H]1COCCN1c1cc(C2(S(=O)(=O)c3ccc(F)cc3)CC2)nc(-c2ccc(NC(=O)NCc3ncc[nH]3)cc2)n1 [Example 36aa, 1-[4-[4-[1-(4-fluorophenyl)sulfonylcyclopropyl]-6-[(3S)-3-methylmorpholin-4-yl]pyrimidin-2-yl]phenyl]-3-(1H-imidazol-2-ylmethyl)urea] | 74.9 |
| C[C@H]1COCCN1C(=O)C1(c2cc(N3CCOCC3)nc(-c3ccc(NC(=O)NCCO)cc3)n2)CC1 [Example 34a, 3-(2-hydroxyethyl)-1-[4-[4-[1-[(3S)-3-methylmorpholine-4-carbonyl]cyclopropyl]-6-morpholin-4-ylpyrimidin-2-yl]phenyl]urea] | 38.7 |
| CC(C)NC(=O)Nc1ccc(-c2nc(N3CCOC[C@@H]3C)cc(C3(S(=O)(=O)c4cc(F)cc(F)c4)CC3)n2)cc1 [Example 19d, 1-[4-[4-[1-(3,5-difluorophenyl)sulfonylcyclopro-pyl]-6-[(3S)-3-methylmorpholin-4-yl]pyrimidin-2-yl]phenyl]-3-propan-2-ylurea] | 3.18 |
| C[C@H]1COCCN1c1cc(C2(S(=O)(=O)c3ccccn3)CC2)nc(-c2ccc(NC(=O)Nc3ccccn3)cc2)n1 [Example 28b, 1-[4-[4-[(3S)-3-methylmorpholin-4-yl]-6-(1-pyridin-2-ylsulfonylcyclopropyl)pyrimidin-2-yl]phenyl]-3-pyridin-2-ylurea] | 1.49 |
| CNC(=O)Nc1ccc(-c2nc(N3CCOC[C@@H]3C)cc(C3(S(=O)(=O)CCOC)CC3)n2)cc1 [Example 51, 1-[4-[4-[1-(2-Methoxyethylsulfonyl)cyclopropyl]-6-[(3S)-3-methylmorpholin-4-yl]pyrimidin-2-yl]phenyl]-3-methylurea] | 3.32 |

The next lines start with the values.

| IC50 [nM] | SMILES |
| --- | --- |
| 1.12 | C[C@H]1COCCN1c1cc(C2(S(=O)(=O)c3ccc(Cl)cc3)CC2)nc(-c2ccc(NC(=O)NCCCO)cc2)n1 [Example 27l, 1-[4-[4-[1-(4-chlorophenyl)sulfonylcyclopropyl]-6-[(3S)-3-methylmorpholin-4-yl]pyrimidin-2-yl]phenyl]-3-(3-hydroxypropyl)urea] |
| 0.584 | CNC(=O)Nc1ccc(-c2nc(N3CCOC[C@@H]3C)cc(C3(S(=O)(=O)c4cncc(F)c4)CC3)n2)cc1 [Example 17b, 1-[4-[4-[1-(5-fluoropyridin-3-yl)sulfonylcyclopropyl]-6-[(3S)-3-methylmorpholin-4-yl]pyrimidin-2-yl]phenyl]-3-methylurea] |
| 29.8 | Cc1csc(S(=O)(=O)C2(c3cc(N4CCOC[C@@H]4C)nc(-c4ccc(NC(=O)NCCC#N)cc4)n3)CCCC2)n1 [Example 36dm, 3-(2-cyanoethyl)-1-[4-[4-[(3S)-3-methylmorpholin-4-yl]-6-[1-[(4-methyl-1,3-thiazol-2-yl)sulfonyl]cyclopentyl]pyrimidin-2-yl]phenyl]urea] |
